Measurements reported in patent US8383581B2, “Short-chain peptides as parathyroid hormone (PTH) receptor agonist” (Cadila Healthcare Limited, priority 2009, dated 2013).
Where a SMILES comes first, the peptide text is derived from it. [ ]: non-standard residue; d: D form. ξ: configuration not given here. ξBip(2'-Et-4'-OMe) = CCc1cc(OC)ccc1-c1ccc(CC(N)C(=O)O)cc1; Arg(NO2) = N=C(NCCC[C@H](N)C(=O)O)N[N+](=O)[O-]; ξαMePhe(2,6-F2) = CC(N)(Cc1c(F)cccc1F)C(=O)O; ξαMePhe(2-F) = CC(N)(Cc1ccccc1F)C(=O)O; hArg = N=C(N)NCCCC[C@H](N)C(=O)O; hCit = NC(=O)NCCCC[C@H](N)C(=O)O; Cit = NC(=O)NCCC[C@H](N)C(=O)O; ξhhPhe = NC(CCCc1ccccc1)C(=O)O; Nle = CCCC[C@H](N)C(=O)O; Orn = NCCC[C@H](N)C(=O)O; ξαMeP = CC1(C(=O)O)CCCN1; Ac5c = NC1(C(=O)O)CCCC1; Aib = CC(C)(N)C(=O)O

System: ovariectomised (OVX) rats
Assay: In vivo anti-osteoporosis activity testing in OVX rat model (serum calcium, phosphate, bone parameters)
Design: species or system Female Wistar Rats
Details: po
Excerpt: c) In Vivo Anti-Osteoporosis Activity Testing in OVX Rat Model: The ovariectomised (OVX) rats were used to study anti-osteoporosis activity of test compounds (short-chain peptides) in vivo. The OVX rats develop osteopenia due to ovarian hormone deficiency. Osteopenia can be detected as early as 14 days post OVX, increase for the next 100 days and then stabilised (Wronski T. J., et al., Calcif. Tissue Int., 43(3), 1988, 179-183). Detailed Study Protocol to Evaluate the Effects of Anabolic Therapy on Bone Markers and Histomorphometry in OVX Animals: 10 to 11 weeks old Female Wistar Rats (150-200 g) were used. The animals were kept in individually ventilated cages in a room with controlled temperature (23°±3° C.), lighting (12:12 h light-dark cycle) and relative humidity (55±10%). Animals had free access to standard rat chow and water. Protocol for use of animals for conducting this study has been reviewed and approved by Institutional Animal Ethics Committee (IAEC). The animals were marked with picric acid for identification and acclimatized to experimental room conditions for 2 days prior to initiation of the study. For the induction of osteoporosis, rats were bilaterally ovariectomised under anesthesia. For Ovariectomy, Incision was made on dorsa-lateral side near lumbar region of animal. After that, ovary was excised and the veins were tied with ligature before removing ovary to prevent blood loss. Then incision was sutured back with ligature. After Bilateral ovariectomy, animals were allowed to rest for 4 weeks. They were then divided into different groups (n=9) based on their body weight. The groups consisted of a no treatment control, PTH as standard and one or two groups of test compounds (short-chain peptides). The treatment was given for the duration of 6 weeks. At the last day of treatment animals were kept overnight in metabolic cages under fasting for the collection of Urine. Next day, blood was collected after 24 hours of last dosing and animals were sacrificed. Changes in biochemical parameters and bone turnover parameters (Increase in serum Calcium and decrease in Phosphate levels, Acid Phosphatase and TRAP) were evaluated in the urine and serum. After sacrificing, intact femur and tibial bones are removed and cleaned from adherent tissues, muscles and tendons; weighed and collected in formal saline (10% formaldehyde solution). Lumbar vertebra (L5) was excised, carefully cleaned and collected in formal saline. Femur, tibia and Lumbar vertebra-5 (L5) were later processed for histomorphometric evaluation (Zhang L., et al., Tohoku J Exp Med., 1998, 186(2), 131-41; Tanizawa T., et al., Toxicol Lett., 1998, 102, 399-403).

CCCC[C@H](NC(=O)C(C)(Cc1c(F)cccc1F)NC(=O)[C@H](CCC(N)=O)NC(=O)[C@@H](NC(=O)[C@H](CCC(=O)O)NC(=O)C(C)(C)NC(=O)[C@@H](NC(=O)C(C)(C)N)C(C)C)[C@@H](C)CC)C(=O)N[C@@H](Cc1c[nH]cn1)C(=O)N[C@@H](CCC(N)=O)C(=O)N[C@@H](CCCN)C(=O)N[C@@H](C)C(=O)NC(C)(Cc1c(F)cccc1F)C(=O)NC(C)(Cc1ccccc1F)C(N)=O (stereo partly shown) [Seq. ID. 317] (H-[Aib]V[Aib]EIQ[ξαMePhe(2,6-F2)][Nle]HQ[Orn]A[ξαMePhe(2,6-F2)][ξαMePhe(2-F)]-NH2)
% decrease in serum PO4 Levels (mg/dl) vs control (3 mg/kg): 93% | % increase in serum Ca^2+ Levels (mg/dl) vs control (3 mg/kg): 102%

CCCC[C@H](NC(=O)C(C)(Cc1c(F)cccc1F)NC(=O)[C@H](CCC(N)=O)NC(=O)[C@@H](NC(=O)[C@H](CCC(=O)O)NC(=O)C(C)(C)NC(=O)[C@@H](NC(=O)C1(N)CCCC1)C(C)C)[C@@H](C)CC)C(=O)N[C@@H](Cc1c[nH]cn1)C(=O)N[C@@H](CCC(N)=O)C(=O)N[C@@H](CCCN)C(=O)N[C@@H](C)C(=O)NC(C)(Cc1c(F)cccc1F)C(=O)NC(Cc1ccc(-c2ccc(OC)cc2CC)cc1)C(=O)NC(CCCc1ccccc1)C(N)=O (stereo partly shown) [Seq. ID. 833] (H-[Ac5c]V[Aib]EIQ[ξαMePhe(2,6-F2)][Nle]HQ[Orn]A[ξαMePhe(2,6-F2)][ξBip(2'-Et-4'-OMe)][ξhhPhe]-NH2)
% decrease in serum PO4 Levels (mg/dl) vs control (0.05 mg/kg): 78% | % increase in serum Ca^2+ Levels (mg/dl) vs control (0.05 mg/kg): 86%

CCCC[C@H](NC(=O)C(C)(Cc1c(F)cccc1F)NC(=O)[C@H](CCC(N)=O)NC(=O)[C@@H](NC(=O)[C@H](CCC(=O)O)NC(=O)C(C)(C)NC(=O)[C@@H](NC(=O)C(C)(C)N)C(C)C)[C@@H](C)CC)C(=O)N[C@@H](Cc1c[nH]cn1)C(=O)N[C@@H](CCC(N)=O)C(=O)N[C@@H](CCCCNC(=N)N)C(=O)N1CCCC1(C)C(=O)N[C@@H](CCCCN)C(=O)NC(C)(Cc1ccccc1F)C(N)=O (stereo partly shown) [Seq. ID. 72] (H-[Aib]V[Aib]EIQ[ξαMePhe(2,6-F2)][Nle]HQ[hArg][ξαMeP]K[ξαMePhe(2-F)]-NH2)
% decrease in serum PO4 Levels (mg/dl) vs control (0.01 mg/kg): 77% | % increase in serum Ca^2+ Levels (mg/dl) vs control (0.01 mg/kg): 49%

CCCC[C@H](NC(=O)[C@H](CC(C)C)NC(=O)[C@H](CCC(N)=O)NC(=O)[C@@H](NC(=O)[C@H](CCC(=O)O)NC(=O)C(C)(C)NC(=O)[C@@H](NC(=O)C1(N)CCCC1)C(C)C)[C@@H](C)CC)C(=O)N[C@@H](Cc1c[nH]cn1)C(=O)N[C@@H](CCC(N)=O)C(=O)N[C@@H](CCCCNC(N)=O)C(=O)N[C@@H](C)C(=O)N[C@@H](CCCNC(=N)N)C(=O)NC(Cc1ccc(-c2ccc(OC)cc2CC)cc1)C(=O)NC(CCCc1ccccc1)C(N)=O (stereo partly shown) [Seq. ID. 779] (H-[Ac5c]V[Aib]EIQL[Nle]HQ[hCit]AR[ξBip(2'-Et-4'-OMe)][ξhhPhe]-NH2)
% decrease in serum PO4 Levels (mg/dl) vs control (1 mg/kg): 56% | % increase in serum Ca^2+ Levels (mg/dl) vs control (1 mg/kg): 67%

CCCC[C@H](NC(=O)C(C)(Cc1ccccc1F)NC(=O)[C@H](CCC(N)=O)NC(=O)[C@@H](NC(=O)[C@H](CCC(=O)O)NC(=O)C(C)(C)NC(=O)[C@@H](NC(=O)C1(N)CCCC1)C(C)C)[C@@H](C)CC)C(=O)N[C@@H](Cc1c[nH]cn1)C(=O)N[C@@H](CCC(N)=O)C(=O)NC(C)(C)C(=O)NC(C)(C)C(=O)NC(C)(C)C(=O)NC(C)(Cc1ccccc1F)C(N)=O (stereo partly shown) [Seq. ID. 556] (H-[Ac5c]V[Aib]EIQ[ξαMePhe(2-F)][Nle]HQ[Aib][Aib][Aib][ξαMePhe(2-F)]-NH2)
% decrease in serum PO4 Levels (mg/dl) vs control (5 mg/kg): 84% | % increase in serum Ca^2+ Levels (mg/dl) vs control (5 mg/kg): 77%

CCCC[C@H](NC(=O)C(C)(Cc1c(F)cccc1F)NC(=O)[C@H](CCC(N)=O)NC(=O)[C@@H](NC(=O)[C@H](CCC(=O)O)NC(=O)C1(NC(=O)[C@@H](NC(=O)C2(N)CCCC2)C(C)C)CCCC1)[C@@H](C)CC)C(=O)N[C@@H](Cc1c[nH]cn1)C(=O)N[C@@H](CCC(N)=O)C(=O)N[C@@H](CCCCNC(=N)N)C(=O)NC(C)(C)C(=O)N[C@@H](CCCNC(N)=O)C(=O)NC(C)(Cc1c(F)cccc1F)C(N)=O (stereo partly shown) [Seq. ID. 158] (H-[Ac5c]V[Ac5c]EIQ[ξαMePhe(2,6-F2)][Nle]HQ[hArg][Aib][Cit][ξαMePhe(2,6-F2)]-NH2)
% decrease in serum PO4 Levels (mg/dl) vs control (0.1 mg/kg): 82% | % increase in serum Ca^2+ Levels (mg/dl) vs control (0.1 mg/kg): 100%

CCCC[C@H](NC(=O)[C@H](CC(C)C)NC(=O)[C@H](CCC(N)=O)NC(=O)[C@@H](NC(=O)[C@H](CCC(=O)O)NC(=O)C(C)(C)NC(=O)[C@@H](NC(=O)C1(N)CCCC1)C(C)C)[C@@H](C)CC)C(=O)N[C@@H](Cc1c[nH]cn1)C(=O)N[C@@H](CCC(N)=O)C(=O)N[C@@H](CCCCNC(=N)N)C(=O)N[C@@H](C)C(=O)N[C@@H](CCCNC(=N)N[N+](=O)[O-])C(=O)NC(Cc1ccc(-c2ccc(OC)cc2CC)cc1)C(=O)NC(CCCc1ccccc1)C(N)=O (stereo partly shown) [Seq. ID. 686] (H-[Ac5c]V[Aib]EIQL[Nle]HQ[hArg]A[Arg(NO2)][ξBip(2'-Et-4'-OMe)][ξhhPhe]-NH2)
% decrease in serum PO4 Levels (mg/dl) vs control (3 mg/kg): 80% | % increase in serum Ca^2+ Levels (mg/dl) vs control (3 mg/kg): 84%

CCCC[C@H](NC(=O)[C@H](CC(C)C)NC(=O)[C@H](CCC(N)=O)NC(=O)[C@@H](NC(=O)[C@H](CCC(=O)O)NC(=O)C(C)(C)NC(=O)[C@@H](NC(=O)C(C)(C)N)C(C)C)[C@@H](C)CC)C(=O)N[C@@H](Cc1c[nH]cn1)C(=O)N[C@@H](CCC(N)=O)C(=O)N[C@@H](CCCCNC(=N)N)C(=O)NC(C)(C)C(=O)NC(C)(C)C(=O)NC(Cc1ccc(-c2ccc(OC)cc2CC)cc1)C(=O)NC(CCCc1ccccc1)C(N)=O (stereo partly shown) [Seq. ID. 742] (H-[Aib]V[Aib]EIQL[Nle]HQ[hArg][Aib][Aib][ξBip(2'-Et-4'-OMe)][ξhhPhe]-NH2)
% decrease in serum PO4 Levels (mg/dl) vs control (0.1 mg/kg): 92% | % increase in serum Ca^2+ Levels (mg/dl) vs control (0.1 mg/kg): 89%
